We go through 51 molecules from patent US9695165B2, “Inhibitors of the fibroblast growth factor receptor” (BLUEPRINT MEDICINES CORPORATION, priority 2014, dated 2017).

Each structure is given as a SMILES string.

As usually defined, the IC50 is the concentration that gives 50% inhibition.

One test deals with wild type FGFR-4 (Homo sapiens (Human), UniProt P22455). The test is described as follows: FGFR-4 wild type assay at Km (Caliper electrophoretic mobility shift). As to conditions: wild type FGFR-4, 400 uM ATP, 25 C, 90 minutes; read-out: FGFR4 IC50. It counts as biochemical. Here is the method: In order to assess the activity of chemical compounds against the relevant kinase of interest, the Caliper LifeSciences electrophoretic mobility shift technology platform is utilized. Fluorescently labeled substrate peptide is incubated in the presence of dosed levels of compounds, a set concentration of kinase and of ATP, so that a reflective proportion of the peptide is phosphorylated. At the end of the reaction, the mix of phosphorylated (product) and non-phosphorylated (substrate) peptides are passed through the microfluidic system of the Caliper LabChip® EZ Reader II, under an applied potential difference. The presence of the phosphate group on the product peptide provides a difference in mass and charge between the product peptide and the substrate peptide, resulting in a separation of the substrate and product pools in the sample. As the pools pass the LEDS within the instrument, these pools are detected and resolved as separate peaks. The ratio between these peaks therefore reflects the activity of the chemical matter at that concentration in that well, under those conditions.
Chain of wild type FGFR-4 (P22455 22-802): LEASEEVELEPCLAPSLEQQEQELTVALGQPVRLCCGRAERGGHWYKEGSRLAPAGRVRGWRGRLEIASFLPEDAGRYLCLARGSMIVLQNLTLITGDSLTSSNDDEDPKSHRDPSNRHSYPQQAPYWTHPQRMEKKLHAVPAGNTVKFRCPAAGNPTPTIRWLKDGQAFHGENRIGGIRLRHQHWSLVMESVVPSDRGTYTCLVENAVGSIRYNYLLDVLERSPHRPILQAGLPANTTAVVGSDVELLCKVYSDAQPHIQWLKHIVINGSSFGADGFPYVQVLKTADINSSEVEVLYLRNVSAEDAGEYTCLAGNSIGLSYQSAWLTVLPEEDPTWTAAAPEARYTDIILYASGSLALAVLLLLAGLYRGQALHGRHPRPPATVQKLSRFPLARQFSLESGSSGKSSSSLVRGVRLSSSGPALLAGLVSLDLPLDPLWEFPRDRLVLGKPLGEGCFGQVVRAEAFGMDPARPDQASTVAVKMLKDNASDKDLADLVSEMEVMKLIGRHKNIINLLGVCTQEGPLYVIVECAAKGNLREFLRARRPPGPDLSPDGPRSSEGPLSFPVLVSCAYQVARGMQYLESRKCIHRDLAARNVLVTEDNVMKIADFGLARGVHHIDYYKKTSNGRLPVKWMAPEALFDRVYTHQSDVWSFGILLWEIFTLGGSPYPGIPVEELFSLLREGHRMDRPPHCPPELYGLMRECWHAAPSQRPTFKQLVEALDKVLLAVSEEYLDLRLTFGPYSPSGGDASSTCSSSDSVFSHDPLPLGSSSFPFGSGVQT
The reaction was stopped by the addition of 70 ul of Stop buffer (100 mM HEPES pH 7.5, 0.015% Brij 35, 35 mM EDTA and 0.2% of Coating Reagent 3 (Caliper Lifesciences)). The plate was then read on a Caliper LabChip® EZ Reader II (protocol settings: −1.9 psi, upstream voltage −700, downstream Voltage −3000, post sample sip 35S).

Test [1] relates to pMAPK (Thr202/Tyr204) in MDA-MB453 cells. The experiment in a line: Detection of pMAPK (Thr202/Tyr204) using Alpha Elisa (pERK alphaLISA) in MDA-MB453 cells. It counts as cell-based. As to conditions: Homo sapiens, MDA-MB-453, 1 hr incubation with compound. A general note: Bead proximity is the source of the signal in Alpha formats.
Method: MDA-MB453 cells were plated in 96-well cell culture plates at a density of 1×10^5 cells. Cells were allowed to attach, and growth media was replaced with serum free media. Compounds were added at the indicated concentrations. Following 1 hr incubation in the presence of compound, cells were collected. Cell lysates were prepared and processed according to manufacturer instruction (AlphaScreen® SureFire™ Phospho-ERK 1/2 Kit (Perkin Elmer).

For `C=CC(=O)Nc1ccc(F)c(-c2cc3c(cn2)cc(-c2c(Cl)c(OC)cc(OC)c2Cl)c(=O)n3C(C)C)c1` [Compound 40], the IC50 (on wild type FGFR-4; in test [1]) was < 10 nM each time. For `C=CC(=O)Nc1ccccc1-c1cc2ccc(-c3c(Cl)c(OC)cc(OC)c3Cl)cc2cn1` [Compound 1], at wild type FGFR-4, the IC50 lay in the range of 100 to 1000 nM. As to `C=CC(=O)Nc1ccc(F)c(-c2cc3c(cn2)cc(-c2c(Cl)c(OC)cc(OC)c2Cl)c(=O)n3C)c1` [Compound 23], the IC50 at wild type FGFR-4 was < 10 nM; in test [1], 10 to 100 nM. As for `C=CC(=O)N1CCCc2ccc(-c3cc4c(cn3)cc(-c3c(Cl)c(OC)cc(OC)c3Cl)c(=O)n4CC)cc21` [Compound 45], the half-inhibitory concentration (IC50) on wild type FGFR-4 was < 10 nM. On to `C=CC(=O)Nc1ccccc1-c1cc2c(cn1)cc(-c1cc(C(=O)NOC)ccc1Cl)c(=O)n2CC` [Compound 9], for which the figures for the half-maximal inhibitory concentration (IC50) (at wild type FGFR-4; in test [1]) were < 10 nM and 10 to 100 nM, respectively. Taken in the same sequence, the figures for `C=CC(=O)Nc1ccc(F)c(-c2cc3c(cn2)cc(-c2c(F)c(OC)cc(OC)c2Cl)c(=O)n3CC)c1` [Compound 21] were < 10 nM and < 10 nM.

Consider `C=CC(=O)Nc1cccc(-c2ncc3cc(-c4c(Cl)c(OC)cc(OC)c4Cl)ccc3n2)c1` [Compound 3], for which the IC50 at wild type FGFR-4 is > 1000 nM. Same read-out and setting: the result for `C=CC(=O)N1CCOc2ccc(-c3cc4c(cn3)cc(-c3c(Cl)c(OC)cc(OC)c3Cl)c(=O)n4C3CCCC3)cc21` [Compound 54] reads 10 to 100 nM. Take `C=CC(=O)N1CC(C)(C)Oc2ccc(-c3ncc4cc(-c5c(Cl)c(OC)cc(OC)c5Cl)ccc4n3)cc21` [Compound 34]: the IC50 (on wild type FGFR-4; in test [1]) was 10 to 100 nM in each case. As to `C=CC(=O)Nc1ccccc1-c1ncc2cc(-c3c(Cl)c(OC)cc(OC)c3Cl)c(=O)n(C3CCCC3)c2n1` [Compound 46], at wild type FGFR-4, the IC50 lay in the range of 10 to 100 nM. Same read-out and setting: the result for `C=CC(=O)Nc1cc(F)c(F)c(-c2cc3c(cn2)cc(-c2c(Cl)c(OC)cc(OC)c2Cl)c(=O)n3CC)c1` [Compound 41] reads < 10 nM. Take `C=CC(=O)N1CCOc2cc(F)c(-c3ncc4cc(-c5c(Cl)c(OC)cc(OC)c5Cl)ccc4n3)cc21` [Compound 28]: the IC50 on wild type FGFR-4 was < 10 nM; in test [1] it was 10 to 100 nM. As for `C=CC(=O)N1CCOc2ccc(-c3cc4c(cn3)nc(-c3c(Cl)c(OC)cc(OC)c3Cl)c(=O)n4C3CCCC3)cc21` [Compound 56], the half-inhibitory concentration (IC50) at wild type FGFR-4 was < 10 nM. For `C=CC(=O)N1CCOc2ccc(-c3ncc4cc(-c5c(Cl)c(OC)cc(OC)c5Cl)ccc4n3)cc21` [Compound 16], at wild type FGFR-4, the IC50 fell in the range of 10 to 100 nM.

For the molecule `C=CC(=O)Nc1cccc(-c2cc3c(cn2)cc(-c2c(Cl)c(OC)cc(OC)c2Cl)c(=O)n3CC)c1` [Compound 20], the concentration for half-maximal inhibition (IC50) (on wild type FGFR-4; in test [1]) was < 10 nM in each case. Consider `C=CC(=O)N1c2cc(-c3cc4c(cn3)cc(-c3c(Cl)c(OC)cc(OC)c3Cl)c(=O)n4CC)c(F)cc2OCC1C` (stereo not drawn) [Compound 53], for which the IC50 at wild type FGFR-4 is < 10 nM; in test [1], 10 to 100 nM. Turning to `C=CC(=O)Nc1cccc(-c2ncc3cc(-c4c(Cl)c(OC)cc(OC)c4Cl)cc(OC)c3n2)c1` [Compound 13], the IC50 on wild type FGFR-4 lay in the range of 100 to 1000 nM. Take `C=CC(=O)Nc1ccc(F)c(-c2ncc3cc(-c4c(Cl)c(OC)cc(OC)c4Cl)c(=O)n(CC)c3n2)c1` [Compound 30]: in test [1], the half-inhibitory concentration (IC50) was < 10 nM.

As for `C=CC(=O)N1CC(C)(C)Oc2ccc(-c3cc4c(cn3)cc(-c3c(Cl)c(OC)cc(OC)c3Cl)c(=O)n4CC)cc21` [Compound 52], the IC50 in test [1] was in the range of 10 to 100 nM. For `C=CC(=O)Nc1ccc(F)c(-c2cc3c(cn2)cc(-c2cc(OC)cc(OC)c2Cl)c(=O)n3CC)c1` [Compound 12], the half-inhibitory concentration (IC50) (at wild type FGFR-4; in test [1]) was < 10 nM in each case. Regarding `C=CC(=O)Nc1ccc(C)c(-c2cc3c(cn2)CN(c2c(Cl)c(OC)cc(OC)c2Cl)C(=O)N3CC)c1` [Compound 29], the IC50 on wild type FGFR-4 fell in the range of 10 to 100 nM.

As to `C=CC(=O)N1CCOc2ccc(-c3cc4c(cn3)cc(-c3c(Cl)c(OC)cc(OC)c3Cl)c(=O)n4C)cc21` [Compound 37], the 50% inhibitory concentration (IC50) at wild type FGFR-4 is < 10 nM. The same measure, in the same setting: to `CCn1c(=O)c(-c2c(Cl)c(OC)cc(OC)c2Cl)cc2cnc(-c3cccc(NC(=O)/C=C/CN(C)C)c3)cc21` [Compound 51] belongs 10 to 100 nM. Consider `C=CC(=O)Nc1ccc(F)c(-c2cc3c(cn2)cc(-c2cc(OC)cc(OC)c2)c(=O)n3C(C)C)c1` [Compound 4], for which the IC50 on wild type FGFR-4 was 10 to 100 nM; in test [1], 100 to 1000 nM. The like results for `C=CC(=O)N1CCOc2ccc(-c3cc4c(cn3)cc(-c3c(Cl)c(OC)cc(OC)c3Cl)c(=O)n4CC)cc21` [Compound 47] were, in that order, < 10 nM and 10 to 100 nM.

Take `C=CC(=O)N(C)c1cccc(-c2ncc3cc(-c4c(Cl)c(OC)cc(OC)c4Cl)ccc3n2)c1` [Compound 6]: the IC50 on wild type FGFR-4 is > 1000 nM. As for `C=CC(=O)Nc1ccc(C)c(-c2cc3c(cn2)cc(-c2c(Cl)c(OC)cc(OC)c2Cl)c(=O)n3CC)c1` [Compound 27], the IC50 (at wild type FGFR-4; in test [1]) was 10 to 100 nM in each case. For `C=CC(=O)N1CC(C)(C)Oc2cc(C)c(-c3ncc4cc(-c5c(Cl)c(OC)cc(OC)c5Cl)ccc4n3)cc21` [Compound 44], the IC50 on wild type FGFR-4 is 10 to 100 nM. Regarding `C=CC(=O)Nc1ccccc1-c1cc2c(cn1)cc(-c1c(Cl)c(OC)cc(OC)c1Cl)c(=O)n2C(C)C` [Compound 25], the values for the IC50 (on wild type FGFR-4; in test [1]) were < 10 nM and 10 to 100 nM, respectively. As to `C=CC(=O)Nc1ccc(C)c(-c2ncc3cc(-c4c(Cl)c(OC)cc(OC)c4Cl)ccc3n2)c1` [Compound 5], the IC50 on wild type FGFR-4 is > 1000 nM. The same measure, in the same setting: the result for `C=CC(=O)Nc1ccccc1-c1ncc2cc(-c3c(Cl)c(OC)cc(OC)c3Cl)ccc2n1` [Compound 2] reads 100 to 1000 nM. In the case of `C=CC(=O)N1CCOc2cc(C)c(-c3ncc4cc(-c5c(Cl)c(OC)cc(OC)c5Cl)ccc4n3)cc21` [Compound 24], the IC50 (on wild type FGFR-4; in test [1]) was 10 to 100 nM throughout. As for `C=CC(=O)Nc1ccc(F)c(-c2ncc3cc(-c4c(Cl)c(OC)cc(OC)c4Cl)c(=O)n(CC)c3n2)c1` [Compound 31], the IC50 on wild type FGFR-4 lay within 10 to 100 nM. Consider `C=CC(=O)Nc1ccc(F)c(-c2cc3c(cn2)CN(c2c(Cl)c(OC)cc(OC)c2Cl)C(=O)N3CC)c1` [Compound 32], for which the half-inhibitory concentration (IC50) on wild type FGFR-4 was < 10 nM; in test [1], 10 to 100 nM. Regarding `C=CC(=O)N1CC(C)(C)Oc2cc(F)c(-c3ncc4cc(-c5c(Cl)c(OC)cc(OC)c5Cl)ccc4n3)cc21` [Compound 48], the IC50 on wild type FGFR-4 is 10 to 100 nM. Same read-out and setting: the result for `C=CC(=O)N(C)c1ccccc1-c1cc2c(cn1)cc(-c1c(Cl)c(OC)cc(OC)c1Cl)c(=O)n2CC` [Compound 26] reads 10 to 100 nM. In the case of `C=CC(=O)Nc1cccc(F)c1-c1ncc2cc(-c3c(Cl)c(OC)cc(OC)c3Cl)ccc2n1` [Compound 7], the IC50 in test [1] is 100 to 1000 nM. Regarding `C=CC(=O)N1CCOc2ccc(-c3cc4c(cn3)CN(c3c(Cl)c(OC)cc(OC)c3Cl)C(=O)N4CC)cc21` [Compound 50], the IC50 at wild type FGFR-4 was < 10 nM; in test [1] it was 10 to 100 nM. On to `C=CC(=O)Nc1cccc(-c2cc3c(cn2)CN(c2c(Cl)c(OC)cc(OC)c2Cl)C(=O)N3CC)c1` [Compound 22], for which the IC50 (at wild type FGFR-4; in test [1]) was 10 to 100 nM each time. `C=CC(=O)N1CCOc2ccc(-c3ncc4cc(-c5c(Cl)c(OC)cc(OC)c5Cl)c(OC)cc4n3)cc21` [Compound 36]: the IC50 at wild type FGFR-4 was in the range of 10 to 100 nM. Still for that read-out and setting: the result for `C=CC(=O)N1CCC(C)(C)c2ccc(-c3ncc4cc(-c5c(Cl)c(OC)cc(OC)c5Cl)ccc4n3)cc21` [Compound 33] reads 100 to 1000 nM.

Turning to `C=CC(=O)N1CCc2cc(F)c(-c3ncc4cc(-c5c(Cl)c(OC)cc(OC)c5Cl)ccc4n3)cc21` [Compound 18], the IC50 on wild type FGFR-4 was < 10 nM; in test [1], 10 to 100 nM. For the molecule `C=CC(=O)Nc1ccccc1-c1cc2c(cn1)cc(-c1c(Cl)c(OC)cc(OC)c1Cl)c(=O)n2CC` [Compound 19], the IC50 at wild type FGFR-4 was < 10 nM; in test [1], 10 to 100 nM. Regarding `C=CC(=O)Nc1ccccc1-c1ncc2cc(-c3c(Cl)c(OC)cc(OC)c3Cl)c(OC)cc2n1` [Compound 15], at wild type FGFR-4, the concentration for half-maximal inhibition (IC50) is 100 to 1000 nM. Consider `C=CC(=O)Nc1ccc(F)c(-c2cc3c(cn2)cc(-c2c(F)c(OC)cc(OC)c2F)c(=O)n3C(C)C)c1` [Compound 17], for which the IC50 (at wild type FGFR-4; in test [1]) was < 10 nM each time. Turning to `C=CC(=O)N1CCOc2ccc(-c3ncc4cc(-c5c(Cl)c(OC)cc(OC)c5Cl)c(=O)n(C5CCCC5)c4n3)cc21` [Compound 55], on wild type FGFR-4, the IC50 was 10 to 100 nM. Regarding `C=CC(=O)N1CCc2ccc(-c3ncc4cc(-c5c(Cl)c(OC)cc(OC)c5Cl)c(=O)n(CC)c4n3)cc21` [Compound 35], the IC50 in test [1] lay in the range of 10 to 100 nM. `C=CC(=O)N1c2cc(-c3ncc4cc(-c5c(Cl)c(OC)cc(OC)c5Cl)ccc4n3)c(F)cc2OCC1C` (stereo not drawn) [Compound 38]: the IC50 at wild type FGFR-4 was in the range of 10 to 100 nM. Turning to `C=CC(=O)Nc1cc(OC(C)C)cc(-c2cc3c(cn2)cc(-c2c(Cl)c(OC)cc(OC)c2Cl)c(=O)n3C)c1` [Compound 49], the IC50 at wild type FGFR-4 was in the range of 10 to 100 nM. For `C=CC(=O)N1CCc2ccc(-c3ncc4cc(-c5c(Cl)c(OC)cc(OC)c5Cl)ccc4n3)cc21` [Compound 11], on wild type FGFR-4, the IC50 fell in the range of 10 to 100 nM. In the case of `C=CC(=O)Nc1ccc(F)c(-c2cc3c(cn2)cc(-c2cc(OC)cc(OC)c2F)c(=O)n3C(C)C)c1` [Compound 10], the IC50 was < 10 nM on wild type FGFR-4 and 10 to 100 nM in test [1].
